According to ChEMBL document CHEMBL1143921, “Structure-based design and synthesis of benzimidazole derivatives as dipeptidyl peptidase IV inhibitors” (Bioorg Med Chem Lett, 2008):

Assays:
[1] = Bioavailability in rat at 8 mg/kg, po; assay type: ADME, organism-based; conditions: in vivo
[2] = AUC in rat at 8 mg/kg, po; assay type: ADME, organism-based; set-up: dose 8 mg/kg, route oral; conditions: plasma
[3] = Volume of distribution at steady state in rat at 0.8 mg/kg, iv or 8 mg/kg, po; assay type: ADME, organism-based; conditions: in vivo, read-out: Vdss
[4] = Half life in rat at 8 mg/kg, po; assay type: ADME, organism-based; set-up: dose 8 mg/kg, route oral; conditions: in vivo
[5] = Half life in rat at 0.8 mg/kg, iv; assay type: ADME, organism-based; set-up: dose 0.8 mg/kg, route intravenous; conditions: in vivo
in vitro [6] = conditions: rat, liver microsomes
in vitro [7] = conditions: human, liver microsomes
[8] = AUC in rat at 8.4 mg/kg, po; assay type: ADME, organism-based; set-up: dose 8.4 mg/kg, route oral; conditions: plasma
[9] = Half life in rat at 0.7 mg/kg, iv; assay type: ADME, organism-based; set-up: dose 0.7 mg/kg, route intravenous; conditions: in vivo
[10] = Half life in rat at 8.4 mg/kg, po; assay type: ADME, organism-based; set-up: dose 8.4 mg/kg, route oral; conditions: in vivo
[11] = Volume of distribution at steady state in rat at 0.7 mg/kg, iv or 8.4 mg/kg, po; assay type: ADME, organism-based; conditions: in vivo, read-out: Vdss
[12] = Bioavailability in rat at 8.4 mg/kg, po; assay type: ADME, organism-based; conditions: in vivo
[13] = Half life in rat at 1.0 mg/kg, iv; assay type: ADME, organism-based; set-up: dose 1 mg/kg, route intravenous; conditions: in vivo
[14] = Half life in rat at 11.6 mg/kg, po; assay type: ADME, organism-based; set-up: dose 11.6 mg/kg, route oral; conditions: in vivo
[15] = AUC in rat at 11.6 mg/kg, po; assay type: ADME, organism-based; set-up: dose 11.6 mg/kg, route oral; conditions: plasma
[16] = Volume of distribution at steady state in rat at 1.0 mg/kg, iv or 11.6 mg/kg, po; assay type: ADME, organism-based; conditions: in vivo, read-out: Vdss
[17] = Bioavailability in rat at 11.6 mg/kg, po; assay type: ADME, organism-based; conditions: in vivo

| Compound | half-life (in vitro [6]) [h] | half-life (in vitro [7]) [h] | other results |
| --- | --- | --- | --- |
| Cn1cnc2ccc(-c3ccc(Cl)cc3Cl)c(CN)c21 | 0.767 | > 3.33 | bioavailability [1]: 100%; AUC [2]: 11500 ng·h/mL; Vd [3]: 4.81 L/kg; half-life [4]: 4.4 h; half-life [5]: 7 h |
| Cn1cnc2ccc(-c3ccccc3)c(CN)c21 | 0.767 | 1.55 |  |
| Cn1cnc2ccc(-c3ccccc3CO)c(CN)c21 | 0.65 | 1.67 |  |
| CCn1cnc2ccc(-c3ccc(Cl)cc3Cl)c(CN)c21 | 0.7 | > 3.33 |  |
| Cc1nc2ccc(-c3ccccc3Cl)c(CN)c2n1C | 0.117 | > 3.33 |  |
| Cn1cnc2cc(Br)c(-c3ccccc3Cl)c(CN)c21 | 0.4 | 2.93 |  |
| Cn1c(=O)[nH]c2ccc(-c3ccccc3Cl)c(CN)c21 | 1.27 | > 3.33 | AUC [8]: 9000 ng·h/mL; half-life [9]: 4.2 h; half-life [10]: 4 h; Vd [11]: 1.14 L/kg; bioavailability [12]: 49% |
| CCc1nc2ccc(-c3ccccc3Cl)c(CN)c2n1C | 0.0333 | > 3.33 |  |
| Cn1cnc2ccc(-c3ccccc3Cl)c(CN)c21 | 0.95 | > 3.33 |  |
| Cn1cnc2cc(C#N)c(-c3ccccc3Cl)c(CN)c21 | 0.633 | > 3.33 | half-life [13]: 3.8 h; half-life [14]: 2.9 h; AUC [15]: 22100 ng·h/mL; Vd [16]: 1.07 L/kg; bioavailability [17]: 122% |
| Cn1cnc2cc(C(N)=O)c(-c3ccccc3Cl)c(CN)c21 | > 3.33 | > 3.33 |  |
| NCc1c(-c2ccccc2Cl)ccc2ncn(CCO)c12 | 0.533 | > 3.33 |  |
| NCc1c(-c2ccc(Cl)cc2Cl)ccc2nc[nH]c12 | 0.767 | 2.15 |  |

Second part, led by results:

| half-life (in vitro [6]) [h] | half-life (in vitro [7]) [h] | Compound | other results |
| --- | --- | --- | --- |
| 0.217 | 0.483 | Cn1nnc2ccc(-c3ccccc3Cl)c(CN)c21 |  |
| 0.467 | 3.05 | Cc1ccccc1-c1ccc2ncn(C)c2c1CN |  |
| 0.433 | 1.6 | Cn1c(-c2cccnc2)nc2ccc(-c3ccccc3Cl)c(CN)c21 |  |
| 0.183 | > 3.33 | COCc1nc2ccc(-c3ccccc3Cl)c(CN)c2n1C |  |
| 0.0667 | 0.133 | NCc1c(-c2ccccc2Cl)ccc2ncn(Cc3ccccc3)c12 |  |
